{
  "source": "patent EP2095819A1",
  "about": "“N-benzyl imidazole derivatives and their use as aldosterone synthase inhibitors” (Maastricht University, priority 2008, dated 2009)",
  "key": {"human CYP11B1": {"target": "T1, human CYP11B1 (Homo sapiens, UniProt P15538)", "T1 construct": "The full length cDNA for human CYP11B1 was obtained by PCR from human adrenal cDNA; expressed in transfected cells; host or cells: V79 Chinese hamster cells, stably transfected with pcDNA3.1 (hygromycin resistance)", "T1 sequence (P15538 25-503)": "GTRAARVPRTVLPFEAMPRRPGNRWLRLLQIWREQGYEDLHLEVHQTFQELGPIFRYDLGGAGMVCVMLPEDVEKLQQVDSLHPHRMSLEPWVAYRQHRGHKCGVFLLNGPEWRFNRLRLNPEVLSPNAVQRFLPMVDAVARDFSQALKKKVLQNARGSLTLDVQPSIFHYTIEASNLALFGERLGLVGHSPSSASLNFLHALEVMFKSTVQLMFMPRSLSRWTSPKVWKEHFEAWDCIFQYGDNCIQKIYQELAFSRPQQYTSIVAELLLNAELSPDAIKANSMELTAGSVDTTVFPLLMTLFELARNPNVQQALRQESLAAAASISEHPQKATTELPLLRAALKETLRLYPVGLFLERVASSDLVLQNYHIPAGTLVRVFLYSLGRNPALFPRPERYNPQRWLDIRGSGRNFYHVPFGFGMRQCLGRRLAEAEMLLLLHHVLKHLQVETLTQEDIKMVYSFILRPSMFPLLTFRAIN", "experiment": "Inhibitor potency for human CYP11B1 in V79 cells expressing the enzyme (HPLC steroid analysis)", "assay_type": "cell-based", "conditions": "V79 cells (over)expressing human CYP11B1; 1 hour with inhibitor, then 11-deoxycorticosterone 500 nM for another hour; read-out: IC50 11B1", "protocol": "(§1) Inhibitor potencies for human CYP11B1 and CYP11B2 were determined in an in vitro assay using V79 cells in which human CYP11B1 or CYP11B2 are expressed.\nThe human CYP11B1 (over)expressing V79 cells (stably transfected with a pcDNA3.1 vector, carrying a hygromycin resistance box) were constructed at Organon (Newhouse, UK) in the following manner. The full length cDNA for human CYP11B1 was obtained by PCR from human adrenal cDNA as described by Kawamoto et al (\"Cloning of cDNA and genomic DNA for human cytochrome P-45011 beta\" FEBS Lett 1990;269:345-9) and cloned into pPCR SCRIPT (Stratagene, La Jolla, USA). After digestion with Xho I and Not I, the obtained cDNA was inserted into a Xho I/Not I digested pcDNA3.1 vector (InVitrogen, Breda, Netherlands), carrying a hygromycin resistance box. Following transfection to the V79 cells, positive cells were selected based on their hygromycin resistance. The presence of the CYP11B1 gene was confirmed by PCR and the presence of 11β-hydroxylase activity (i.e. the ability to produce corticosterone or cortisol from 11-deoxycorticosterone or 11-deoxycortisol respectively). […] In normal (non transfected) V79 cells, no detectable 11β-hydroxylase activity or PCR signals were found.\n(§2) Cells were cultured under standard conditions in DMEM/FK12 medium (Gibco, Gaitersburg, USA) supplemented with 10% foetal calf serum (Hyclone, Logan, USA), penicillin/streptomycin (100 U/ml and 100 µg/ml, respectively Gibco). Cell culturing and incubation experiments (see below) with the cells were performed at 37°C in a humid environment and 5%CO2 atmosphere.\n(§3) Next, cells were incubated for 1 hour in serum free medium with cumulative inhibitor concentrations. […] After these incubation times, medium was collected for steroid analysis by HPLC. To extract the (produced) steroids from the medium, 1 ml aliquots of medium were mixed with 1 ml 1 M sodium-glycine buffer (pH 10.5) containing 500 nM methylprednisolone (Sigma-Aldrich) as internal standard and 5 ml of diethylether (Biosolve, Valkenswaard, the Netherlands). After shaking for 3 minutes, the samples were briefly centrifuged and the organic phase (containing the steroids) transferred into another tube and blown to dryness under a stream of nitrogen. The dried extracts were dissolved in 100 µl of mobile phase to be used for automated HPLC analysis. The HPLC system comprised a MR column (4.6 x 50 mm, particle size 2.5 µm; Shimadzu, Tokyo, Japan) as a stationary phase and a mixture of 680/320/1 (v/v/v) milliQ water, acetonitrile and trifluoro-acetic acid as mobile phase at a flow rate of 1.0 ml/minute. Steroids were detected by UV absorption at 243 nm (Shimadzu, Tokyo, Japan). To quantitate the steroids, peak area ratios versus the internal standard (methylprednisolone) were determined and compared with calibration curves.\n(§4) Determination of IC50 values (potencies) was based on at least 5 inhibitor concentrations and was derived from the generic equation for enzyme inhibition at fixed substrate concentration vi = v0/(1 + I/IC50) with vi and v0 being the reaction velocities in the presence or absence of inhibitor respectively, and I being the inhibitor concentration (Cornish-Bowden A, \"Analysis of enzyme kinetic data.\", Oxford University Press, Oxford, 1995). All analyses were conducted at least in duplicate. […]"}, "human CYP11B2": {"target": "T2, human CYP11B2 (Homo sapiens, UniProt P19099)", "T2 construct": "expressed in transfected cells; host or cells: V79 Chinese hamster cells", "T2 sequence (P19099 25-503)": "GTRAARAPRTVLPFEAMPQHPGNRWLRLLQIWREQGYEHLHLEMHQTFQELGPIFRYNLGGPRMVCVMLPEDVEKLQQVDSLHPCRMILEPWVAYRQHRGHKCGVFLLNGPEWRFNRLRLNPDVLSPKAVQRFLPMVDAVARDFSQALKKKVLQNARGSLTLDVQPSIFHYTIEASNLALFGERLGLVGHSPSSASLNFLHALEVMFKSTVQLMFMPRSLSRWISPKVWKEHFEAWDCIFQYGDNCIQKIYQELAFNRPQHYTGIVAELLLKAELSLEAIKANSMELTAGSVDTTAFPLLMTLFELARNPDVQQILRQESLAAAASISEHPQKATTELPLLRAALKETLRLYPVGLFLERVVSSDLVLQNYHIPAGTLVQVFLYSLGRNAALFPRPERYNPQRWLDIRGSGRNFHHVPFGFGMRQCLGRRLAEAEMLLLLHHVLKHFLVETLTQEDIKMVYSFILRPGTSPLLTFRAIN", "experiment": "Inhibitor potency for human CYP11B2 in V79 cells expressing the enzyme (HPLC steroid analysis)", "assay_type": "cell-based", "conditions": "for Ratio: Ratio = IC50 CYP11B1/ IC50 CYP11B2 (selectivity); for IC50: V79 cells stably (over)expressing human CYP11B2, 1 hour with inhibitor, then 11-deoxycorticosterone 500 nM for three hours, read-out: IC50 11B2", "protocol": "as §1\nThe V79 cells stably (over)expressing human CYP11 B2 were developed in the laboratory of Prof. Rita Bernhardt, Institute of Biochemistry, Saarland University, Saarbrücken, Germany : • Denner K, Doehmer J,Bernhardt R. \"Cloning of CYP11B1 and CYP11B2 from normal human adrenal and their functional expression in COS-7 and V79 Chinese hamster cells\" Endocr Res 1995;21:443-8; • Bottner B, Denner K, Bernhardt R \"Conferring aldosterone synthesis to human CYP11B1 by replacing key amino acid residues with CYP11B2 ones\", Eur. J. Biochem. 1998; 252: 458-466; • Denner K, Vogel R, Schmalix W, Doehmer J, Bernhardt R.: \"Cloning and stable expression of the human mitochondrial cytochrome P45011B1 cDNA in V79 Chinese hamster cells and their application for testing of potential inhibitors.\" Pharmacogenetics 1995; 5: 89-96; • Denner K, Bernhardt R. \"Inhibition studies of steroid conversions mediated by human CYP11B1 and CYP11B2 expressed in cell cultures\". In: Oxygen Homeostasis and Its Dynamics. Springer-Verlag, Tokyo, Berlin, Heidelberg, New York 1998, pp 231-236; • Ehmer PB, Bureik M, Bernhardt R, Muller U, Hartmann RW. \"Development of a test system for inhibitors of human aldosterone synthase (CYP11B2): screening in fission yeast and evaluation of selectivity in V79 cells.\" J. Steroid Biochem Mol Biol. 2002; 81: 173-179.\nas §2, §3, §4"}},
  "data": [
    {"smiles": "COC(=O)CCc1cncn1Cc1ccc(Br)cc1", "note": "[Compound 20, Methyl 3-[1-(4-bromobenzyl)-1H-imidazol-5-yl]propanoate]", "values": [
      {"measurement": "IC50", "setting": "human CYP11B1", "result": 0.0574, "unit": "µM"},
      {"measurement": "Ratio", "setting": "human CYP11B2", "result": 14.4},
      {"measurement": "IC50", "setting": "human CYP11B2", "result": 0.004, "unit": "µM"}
    ]},
    {"smiles": "N#Cc1ccc(Cn2cncc2C=O)cc1", "note": "[Compound 44, 4-[(5-Formyl-1H-imidazol-1-yl)methyl]benzonitrile]", "values": [
      {"measurement": "IC50", "setting": "human CYP11B1", "result": 0.478, "unit": "µM"},
      {"measurement": "Ratio", "setting": "human CYP11B2", "result": 7.7},
      {"measurement": "IC50", "setting": "human CYP11B2", "result": 0.0618, "unit": "µM"}
    ]},
    {"smiles": "O=[N+]([O-])c1ccc(Cn2cncc2-c2ccccc2)cc1", "note": "[Compound 50, 1-(4-Nitrobenzyl)-5-phenyl-1H-imidazole]", "values": [
      {"measurement": "IC50", "setting": "human CYP11B1", "result": 0.0137, "unit": "µM"},
      {"measurement": "Ratio", "setting": "human CYP11B2", "result": 5.9},
      {"measurement": "IC50", "setting": "human CYP11B2", "result": 0.0023, "unit": "µM"}
    ]},
    {"smiles": "OCCCc1cncn1Cc1ccc(F)cc1", "note": "[Compound 15, 3-[1-(4-Fluorobenzyl)-1H-imidazol-5-yl]propanol]", "values": [
      {"measurement": "IC50", "setting": "human CYP11B1", "result": 0.116, "unit": "µM"},
      {"measurement": "Ratio", "setting": "human CYP11B2", "result": 6.9},
      {"measurement": "IC50", "setting": "human CYP11B2", "result": 0.0168, "unit": "µM"}
    ]},
    {"smiles": "N#Cc1ccc(Cn2cncc2-c2cccc(F)c2)cc1", "note": "[Compound 58, 4-[(5-(3-Fluorophenyl)-1H-imidazol-1-yl)methyl]benzonitrile]", "values": [
      {"measurement": "IC50", "setting": "human CYP11B1", "result": 0.0318, "unit": "µM"},
      {"measurement": "Ratio", "setting": "human CYP11B2", "result": 5.8},
      {"measurement": "IC50", "setting": "human CYP11B2", "result": 0.0055, "unit": "µM"}
    ]},
    {"smiles": "COC(=O)CCc1cncn1Cc1ccc(C#N)cc1", "note": "[Compound 18, Methyl 3-[1-(4-cyanobenzyl)-1H-imidazol-5-yl]propanoate]", "values": [
      {"measurement": "IC50", "setting": "human CYP11B1", "result": 0.0311, "unit": "µM"},
      {"measurement": "Ratio", "setting": "human CYP11B2", "result": 8.9},
      {"measurement": "IC50", "setting": "human CYP11B2", "result": 0.0035, "unit": "µM"}
    ]},
    {"smiles": "COC(=O)c1cncn1Cc1ccc(C#N)cc1", "note": "[Compound 45, Methyl 1-(4-cyanobenzyl)-1H-imidazole-5-carboxylate]", "values": [
      {"measurement": "IC50", "setting": "human CYP11B1", "result": 0.0478, "unit": "µM"},
      {"measurement": "Ratio", "setting": "human CYP11B2", "result": 6.7},
      {"measurement": "IC50", "setting": "human CYP11B2", "result": 0.0071, "unit": "µM"}
    ]},
    {"smiles": "Cc1cncn1Cc1ccc(C#N)cc1", "note": "[Compound 42, 4-[(5-Methyl-1H-imidazol-1-yl)methyl]benzonitrile]", "values": [
      {"measurement": "IC50", "setting": "human CYP11B1", "result": 0.14, "unit": "µM"},
      {"measurement": "Ratio", "setting": "human CYP11B2", "result": 11.4},
      {"measurement": "IC50", "setting": "human CYP11B2", "result": 0.0123, "unit": "µM"}
    ]},
    {"smiles": "Cc1ccccc1-c1cncn1Cc1ccc(C#N)cc1", "note": "[Compound 57, 4-[(5-(2-Methylphenyl)-1H-imidazol-1-yl)methyl]benzonitrile]", "values": [
      {"measurement": "IC50", "setting": "human CYP11B1", "result": 0.0076, "unit": "µM"},
      {"measurement": "Ratio", "setting": "human CYP11B2", "result": 10.5},
      {"measurement": "IC50", "setting": "human CYP11B2", "result": 0.0007, "unit": "µM"}
    ]},
    {"smiles": "N#Cc1ccc(Cn2cncc2CO)cc1", "note": "[Compound 52, 1-(4-cyanobenzyl)-5-hydroxymethyl-1H-imidazole]", "values": [
      {"measurement": "IC50", "setting": "human CYP11B1", "result": 0.285, "unit": "µM"},
      {"measurement": "Ratio", "setting": "human CYP11B2", "result": 10},
      {"measurement": "IC50", "setting": "human CYP11B2", "result": 0.0285, "unit": "µM"}
    ]},
    {"smiles": "N#Cc1ccc(Cn2cncc2-c2ccccc2)cc1", "note": "[Compound 43, 4-[(5-Phenyl-1H-imidazol-1-yl)methyl]benzonitrile]", "values": [
      {"measurement": "IC50", "setting": "human CYP11B1", "result": 0.0275, "unit": "µM"},
      {"measurement": "Ratio", "setting": "human CYP11B2", "result": 15.7},
      {"measurement": "IC50", "setting": "human CYP11B2", "result": 0.0017, "unit": "µM"}
    ]}
  ]
}
